# Data taken from patent publication US7875604B2, “Compounds that inhibit HIV particle formation” (University of Virginia Patent Foundation, priority 2004, dated 2011).
# Key:
# [1] = tested on: HeLa; assay: HIV-1 Rev assay toxicity/non-specificity readout (Firefly Luciferase); format: cell-based; conditions: 50% inhibition of Firefly Luciferase (toxicity/non-specificity), 24 hours; read-out: TC50 (the source's name)
# Method: The eight compounds listed in Table 1 were also tested in an assay that measured HIV-1 Rev function. The HIV-1 Rev assay is based upon the use of a reporter for detecting whether drug candidates are capable of inhibiting the function of the viral Rev protein. The reporter used for these assays is the Renilla Luciferase protein, which is an enzyme that produces detectable light when mixed with certain chemicals. For this assay, a cell line has been developed in which the production of the reporter by the cells requires the function of HIV-1 Rev. Therefore, if a drug candidate inhibits the function of Rev, it decreases the amount of the reporter produced by the cells. By using Renilla Luciferase as the reporter, the inhibition of Rev is easily detected as a decrease in the amount of light produced by the cells when mixed with the appropriate chemicals. Furthermore, the cell line for this assay has been engineered to use a second similar reporter (Firefly Luciferase) that detects whether drug candidates are toxic.
# Compounds were tested in the Rev assay using the maximum high-test concentration possible based on the supplied stocks as shown in Table 3. Compounds were prepared at a 2× high-test concentration by combining drug stock with tissue culture media at a ratio of 5 μL of drug to 995 μL of media. This 2× high-test sample was subsequently serially diluted in tissue culture media using 1/2 log dilutions. This series of 2× concentrated drug was subsequently diluted 1:1 by combining with an equal volume of cells in media in the 96-well plates used for the assay. Representative data for two of the compounds is also depicted in FIG. 5.
# Leptomycin B is a control compound known to inhibit Rev function.
# [2] = tested on: U1 cells; assay: MTS staining for cell viability in U1 cell assay; format: cell-based; conditions: Table 6, MTS, read-out: TC50 (the source's name)
# Outline: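 U1 cells plated with 5 ng/mL TNF-α (final) and compound in 1/2-log dilutions from the highest concentration the stock allowed, then cultured 3 days. Cytotoxicity read by MTS tetrazolium dye reduction at assay end. Assay dropped if Trypan Blue viability was below 70%.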
substance,measurement,setting,value
"2-chloro-N-(4-methylphenyl)-4-(trifluoromethyl)-1,3-thazole-5-carboxamide [Compound 91161]",CC50,[1],> 39.5 µM
same,CC50,[2],22.3 µM
